Consider 15 molecules from ChEMBL document CHEMBL2321811, “Conjugates of modified cryptophycins and RGD-peptides enter target cells by endocytosis” (J Med Chem, 2013).

Test [1] is described as follows: Cytotoxicity against human KBV1 cells by resazurin reduction assay. The note with it: KB-V1. The test is classed as functional, cell-based. A general note: Resazurin is reduced to fluorescent resorufin, in cell work by metabolically active cells.
Test [2] can be described thus: Cytotoxicity against human KB-3-1 cells by resazurin reduction assay. The test is classed as functional, cell-based.
Test [3] in a line: Binding affinity to integrin in human WM-115 cells after 30 mins by immobilized vitronectin-based competitive cell adhesion assay.

As to `C=CCOC(=O)C[C@@H]1CNC(=O)[C@@H](Cc2ccc(OC)c(Cl)c2)NC(=O)/C=C/C[C@@H]([C@H](C)[C@H]2O[C@@H]2c2ccccc2)OC(=O)[C@H](CC(C)C)OC1=O`, the IC50 (in general, the concentration needed to halve the response being measured) in test [1] was found to be 2.7 nM; in test [2], 0.0961 nM.

With `C=CCOC(=O)C[C@H]1CNC(=O)[C@@H](Cc2ccc(OC)c(Cl)c2)NC(=O)/C=C/C[C@@H]([C@H](C)[C@H]2O[C@@H]2c2ccccc2)OC(=O)[C@H](CC(C)C)OC1=O`, the IC50 in test [1] was 6 nM; in test [2], 0.0083 nM.

Turning to `C=CCOC(=O)CCC[C@@H]1CNC(=O)[C@@H](Cc2ccc(OC)c(Cl)c2)NC(=O)/C=C/C[C@@H]([C@H](C)[C@H]2O[C@@H]2c2ccccc2)OC(=O)[C@H](CC(C)C)OC1=O`, the results for the IC50 in test [1] and in test [2] were 45.2 nM and 0.433 nM, respectively.

For `C=CCOCCC[C@@H]1CNC(=O)[C@@H](Cc2ccc(OC)c(Cl)c2)NC(=O)/C=C/C[C@@H]([C@H](C)[C@H]2O[C@@H]2c2ccccc2)OC(=O)[C@H](CC(C)C)OC1=O`, the IC50 in test [1] was found to be 26.6 nM; in test [2], 0.149 nM.

`C=CCOCCC[C@H]1CNC(=O)[C@@H](Cc2ccc(OC)c(Cl)c2)NC(=O)/C=C/C[C@@H]([C@H](C)[C@H]2O[C@@H]2c2ccccc2)OC(=O)[C@H](CC(C)C)OC1=O`: the results for the IC50 in test [1] and in test [2] were 38 nM and 0.0527 nM, respectively.

`COc1ccc(C[C@H]2NC(=O)/C=C/C[C@@H]([C@H](C)[C@H]3O[C@@H]3c3ccccc3)OC(=O)[C@H](CC(C)C)OC(=O)[C@H](CCN=[N+]=[N-])CNC2=O)cc1Cl`: the IC50 came out at 2.1 nM in test [1] and 0.0216 nM in test [2].

On to `COc1ccc(C[C@H]2NC(=O)/C=C/C[C@@H]([C@H](C)[C@H]3O[C@@H]3c3ccccc3)OC(=O)[C@H](CC(C)C)OC(=O)[C@@H](CCN=[N+]=[N-])CNC2=O)cc1Cl`, for which the IC50 came out at 14.1 nM in test [1] and 0.0546 nM in test [2].

Consider `COc1ccc(C[C@H]2NC(=O)/C=C/C[C@@H]([C@H](C)[C@H]3O[C@@H]3c3ccccc3)OC(=O)[C@H](CC(C)C)OC(=O)[C@H](CCCN=[N+]=[N-])CNC2=O)cc1Cl`, for which the IC50 is 18.4 nM in test [1] and 0.112 nM in test [2].

As for `COc1ccc(C[C@H]2NC(=O)/C=C/C[C@@H]([C@H](C)[C@H]3O[C@@H]3c3ccccc3)OC(=O)[C@H](CC(C)C)OC(=O)[C@@H](CCCN=[N+]=[N-])CNC2=O)cc1Cl`, the IC50 in test [1] is 114 nM; in test [2] it was 11.5 nM.

For the molecule `COc1ccc(C[C@H]2NC(=O)/C=C/C[C@@H]([C@H](C)[C@H]3O[C@@H]3c3ccccc3)OC(=O)[C@H](CC(C)C)OC(=O)[C@H](CCCCN=[N+]=[N-])CNC2=O)cc1Cl`, the IC50 is 23.5 nM in test [1] and 0.249 nM in test [2].

In the case of `COc1ccc(C[C@H]2NC(=O)/C=C/C[C@@H]([C@H](C)[C@H]3O[C@@H]3c3ccccc3)OC(=O)[C@H](CC(C)C)OC(=O)[C@H](CCCn3cc(C(C)(C)O)nn3)CNC2=O)cc1Cl`, the IC50 was 411 nM in test [1] and 0.101 nM in test [2].

`COc1ccc(C[C@H]2NC(=O)/C=C/C[C@@H]([C@H](C)[C@H]3O[C@@H]3c3ccccc3)OC(=O)[C@H](CC(C)C)OC(=O)[C@@H](CCCn3cc(C(C)(C)O)nn3)CNC2=O)cc1Cl`: the IC50 in test [1] is 3020 nM; in test [2], 0.312 nM.

With `COc1ccc(C[C@H]2NC(=O)/C=C/C[C@@H]([C@H](C)[C@H]3O[C@@H]3c3ccccc3)OC(=O)[C@H](CC(C)C)OC(=O)[C@@H](CCCn3cc(C[C@@H]4NC(=O)[C@@H](Cc5ccccc5)NC(=O)[C@H](CC(=O)O)NC(=O)CNC(=O)[C@H](CCCNC(=N)N)NC4=O)nn3)CNC2=O)cc1Cl`, the results for the IC50 in test [1] and in test [2] were 1800 nM and 55.8 nM, respectively.

In the case of `COc1ccc(C[C@H]2NC(=O)/C=C/C[C@@H]([C@H](C)[C@H]3O[C@@H]3c3ccccc3)OC(=O)[C@H](CC(C)C)OC(=O)C(C)(C)CNC2=O)cc1Cl` [CRYPTOPHYCIN 52], the values for the IC50 in test [1] and in test [2] were 0.26 nM and 0.0155 nM, respectively.

The molecule `CC(C)[C@@H]1NC(=O)[C@@H](Cc2ccccc2)NC(=O)[C@H](CC(=O)O)NC(=O)CNC(=O)[C@H](CCCN=C(N)N)NC1=O` [CYCLORGDFV] yielded an IC50 in test [3] of 500 nM. That is a sub-micromolar value.
